Test results: US10227331B2 (priority 2015, dated 2019)

Tests used:
IMP-1 = IMP-1 (Serratia marcescens, UniProt P52699); assay: biochemical; assay type: biochemical; settings: CCF2-FA substrate, 2 hours at 25° C; read-out: IMP-1 IC50
In short: (§1)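 Two-hour, 25° C incubation of enzyme with inhibitor and CCF2-FA (7-hydroxycoumarin–cephalosporin–fluorescein). Fluorescence read-out; IC50 via 4-parameter fit.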

NDM-1 = NDM-1 (Klebsiella pneumoniae, UniProt C7C422); assay: biochemical; assay type: biochemical; settings: CCF2-FA substrate, 2 hours at 25° C; read-out: NDM-1 IC50
In short: as §1

VIM-1 = VIM-1 (Pseudomonas aeruginosa (strain ATCC 15692 / DSM 22644 / CIP 104116 / JCM 14847 / LMG 12228 / 1C / PRS 101 / PAO1), UniProt A0A0F7KYQ8); assay: biochemical; settings: CCF2-FA substrate, 2 hours at 25° C
In short: as §1

[1] = system: Escherichia coli expressing NDM-1 (CLB30005, CLB30016); assay type: cell-based; settings: with imipenem 1 μg/ml, 95% inhibition of bacterial growth; for Escherichia coli MITC95: NDM-1 (CLB30016)
In short: (§2)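 Colonies from overnight 35 °C blood-agar cultures were suspended in saline, diluted 1:100 into 1.1× CAMHB and exposed to test compound with or without imipenem at 1 μg/ml. After 22–24 h at 35 °C, absorbance was read to find the concentration restoring imipenem susceptibility.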

[2] = system: Klebsiella pneumoniae expressing VIM-1 (IHMA599644); assay type: cell-based; settings: with imipenem 1 μg/ml, 95% inhibition of bacterial growth; for Klebsiella pneumoniae MITC95: VIM-1 (IHMA599644)
In short: as §2

[3] = system: Serratia marcescens expressing IMP-1 (CL5741); assay type: cell-based; settings: with imipenem 1 μg/ml, 95% inhibition of bacterial growth; for Serratia marcescens MITC95: IMP-1 (CL5741)
In short: as §2

[4] = system: P. aeruginosa expressing IMP-1, efflux+ (MB9798); assay type: cell-based, Pseudomonas aeruginosa; settings: for P. aeruginosa expressing IMP-1, efflux+ (MB9798) MITC95: imipenem at 2 μg/mL, in the presence of a class A, C, D serine β-lactamase inhibitor closely related to relebactam; for Efflux ratio: ratio MITC95 PA_9798/MITC95 PA_9799
Text: (§3) The strain background is Pseudomonas aeruginosa PAO1.

[5] = system: P. aeruginosa expressing IMP-1, efflux− (MB9799); assay: Efflux: concentration of MBL inhibitor which restores susceptibility to imipenem; assay type: cell-based, Pseudomonas aeruginosa; settings: imipenem at 2 μg/mL, in the presence of a class A, C, D serine β-lactamase inhibitor closely related to relebactam
Text: as §3

Sequence of NDM-1 (C7C422 whole entry, looked up, species assumed): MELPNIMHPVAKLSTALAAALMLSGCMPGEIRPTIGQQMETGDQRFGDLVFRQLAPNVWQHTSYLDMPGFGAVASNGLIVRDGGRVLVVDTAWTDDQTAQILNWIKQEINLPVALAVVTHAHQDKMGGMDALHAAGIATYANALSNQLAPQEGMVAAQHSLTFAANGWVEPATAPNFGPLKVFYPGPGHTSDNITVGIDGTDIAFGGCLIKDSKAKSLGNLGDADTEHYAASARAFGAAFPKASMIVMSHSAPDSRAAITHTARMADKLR
Sequence of IMP-1 (P52699 whole entry, looked up, species assumed): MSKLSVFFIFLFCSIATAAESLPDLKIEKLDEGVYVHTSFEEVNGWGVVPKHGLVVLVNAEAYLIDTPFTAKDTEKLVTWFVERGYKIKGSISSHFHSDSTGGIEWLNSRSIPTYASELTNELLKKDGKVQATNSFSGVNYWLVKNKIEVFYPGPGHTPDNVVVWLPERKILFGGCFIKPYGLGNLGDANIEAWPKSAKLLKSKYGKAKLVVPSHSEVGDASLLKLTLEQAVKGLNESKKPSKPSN

`Cc1nc(N)ccc1-c1ccc(S(=O)(=O)CCN)c(S(N)(=O)=O)c1-c1nnn[nH]1.O=C(O)C(F)(F)F` [Example 170, 2-((4-(6-amino-2-methylpyridin-3-yl)-2-sulfamoyl-3-(1H-tetrazol-5-yl)phenyl)sulfonyl)ethanaminium 2,2,2-trifluoroacetate] showed an IC50 (IMP-1) of 2.87 nM, an IC50 (NDM-1) of 3.48 nM and an IC50 (VIM-1) of 1.01 nM. For the same compound, the “Escherichia coli expressing NDM-1 (CLB30016) MITC95” value [1] was 0.3906 µM, the “Klebsiella pneumoniae expressing VIM-1 (IHMA599644) MITC95” value [2] was 3.125 µM and the “Serratia marcescens expressing IMP-1 (CL5741) MITC95” value [3] was 0.7813 µM. The “P. aeruginosa expressing IMP-1, efflux+ (MB9798) MITC95” value [4] was 6.25 µM, the Efflux ratio [4] was 4.00 and the “P. aeruginosa expressing IMP-1, efflux− (MB9799) MITC95” value [5] was 1.563 µM.
Compound `NS(=O)(=O)c1c(S(=O)(=O)C2CNC2)ccc(-c2cccc3[nH]c(C(=O)O)nc23)c1-c1nn[nH]n1` [Example 253, 4-(4-(Azetidin-3-ylsulfonyl)-3-sulfamoyl-2-(2H-tetrazol-5-yl)phenyl)-1H-benzo[d]imidazole-2-carboxylic Acid] has an IC50 (IMP-1) of 0.664 nM, an IC50 (NDM-1) of 0.173 nM and an IC50 (VIM-1) of 0.294 nM. For the same compound, the “Escherichia coli MITC95” value [1] was 1.563 µM, the “Klebsiella pneumoniae MITC95” value [2] was 3.125 µM and the “Serratia marcescens MITC95” value [3] was 1.563 µM. The “P. aeruginosa expressing IMP-1, efflux+ (MB9798) MITC95” value [4] was 1.563 µM, the Efflux ratio [4] was 1.00 and the “P. aeruginosa expressing IMP-1, efflux− (MB9799) MITC95” value [5] was 1.563 µM.
With `NCCS(=O)(=O)c1ccc(-c2ccc(C(F)(F)F)c3sc(N)nc23)c(-c2nn[nH]n2)c1S(N)(=O)=O` [Example 72, 3-(2-amino-7-(trifluoromethyl)benzo[d]thiazol-4-yl)-6-(2-aminoethylsulfonyl)-2-(2H-tetrazol-5-yl)benzenesulfonamide] the IC50 (IMP-1) was 0.322 nM, the IC50 (NDM-1) was 0.153 nM and the IC50 (VIM-1) was 0.286 nM. The “Escherichia coli expressing NDM-1 (CLB30016) MITC95” value [1] was 0.7813 µM, the “Klebsiella pneumoniae expressing VIM-1 (IHMA599644) MITC95” value [2] was 1.563 µM and the “Serratia marcescens expressing IMP-1 (CL5741) MITC95” value [3] was 1.563 µM. The “P. aeruginosa expressing IMP-1, efflux+ (MB9798) MITC95” value [4] was 3.125 µM, the Efflux ratio [4] was 4.00 and the “P. aeruginosa expressing IMP-1, efflux− (MB9799) MITC95” value [5] was 0.7813 µM.
In the case of `Nc1ccc2ncc(-c3ccc(S(=O)(=O)C4CNC4)c(S(N)(=O)=O)c3-c3nn[nH]n3)n2n1` [Example 17, 3-(6-Aminoimidazo[1,2-b]pyridazin-3-yl)-6-(azetidin-3-ylsulfonyl)-2-(2H-tetrazol-5-yl)benzenesulfonamide], the IC50 (IMP-1) is reported as 0.959 nM, the IC50 (NDM-1) is reported as 0.207 nM and the IC50 (VIM-1) is reported as 0.707 nM. The “Escherichia coli expressing NDM-1 (CLB30016) MITC95” value [1] was 3.125 µM, the “Klebsiella pneumoniae expressing VIM-1 (IHMA599644) MITC95” value [2] was 6.25 µM and the “Serratia marcescens expressing IMP-1 (CL5741) MITC95” value [3] was 3.125 µM. The “P. aeruginosa expressing IMP-1, efflux+ (MB9798) MITC95” value [4] was 3.125 µM, the Efflux ratio [4] was 2.00 and the “P. aeruginosa expressing IMP-1, efflux− (MB9799) MITC95” value [5] was 1.563 µM.
With `NCCS(=O)(=O)c1ccc(-c2cccc3cc(C(N)=O)[nH]c23)c(-c2nn[nH]n2)c1S(N)(=O)=O` [Example 323, 7-(4-((2-aminoethyl)sulfonyl)-3-sulfamoyl-2-(2H-tetrazol-5-yl)phenyl)-1H-indole-2-carboxamide] the IC50 (IMP-1) was 0.146 nM, the IC50 (NDM-1) was 0.0513 nM and the IC50 (VIM-1) was 0.214 nM. The “Escherichia coli MITC95” value [1] was 3.125 µM, the “Klebsiella pneumoniae MITC95” value [2] was 1.563 µM and the “Serratia marcescens MITC95” value [3] was 1.563 µM. For the same compound, the “P. aeruginosa expressing IMP-1, efflux+ (MB9798) MITC95” value [4] was 0.7813 µM, the Efflux ratio [4] was 1.00 and the “P. aeruginosa expressing IMP-1, efflux− (MB9799) MITC95” value [5] was 0.7813 µM.
`NC(=O)c1ccc(-c2ccc(S(=O)(=O)C3CNC3)c(S(N)(=O)=O)c2-c2nnn[nH]2)c(N)n1` [Example 67, 6-Amino-5-(4-(azetidin-3-ylsulfonyl)-3-sulfamoyl-2-(1H-tetrazol-5-yl)phenyl)picolinamide] gave an IC50 (IMP-1) of 1.32 nM, an IC50 (NDM-1) of 0.376 nM and an IC50 (VIM-1) of 0.333 nM. For the same compound, the “Escherichia coli expressing NDM-1 (CLB30016) MITC95” value [1] was 1.563 µM, the “Klebsiella pneumoniae expressing VIM-1 (IHMA599644) MITC95” value [2] was 3.125 µM and the “Serratia marcescens expressing IMP-1 (CL5741) MITC95” value [3] was 3.125 µM. The “P. aeruginosa expressing IMP-1, efflux+ (MB9798) MITC95” value [4] was 3.125 µM, the Efflux ratio [4] was 2.00 and the “P. aeruginosa expressing IMP-1, efflux− (MB9799) MITC95” value [5] was 1.563 µM.
Work on `NCCS(=O)(=O)c1ccc(-c2ccc(N)nc2)c(-c2nn[nH]n2)c1S(N)(=O)=O` [Example 321, 6-((2-aminoethyl)sulfonyl)-3-(6-aminopyridin-3-yl)-2-(2H-tetrazol-5-yl) benzenesulfonamide] yielded an IC50 (IMP-1) of 0.949 nM, an IC50 (NDM-1) of 1.36 nM and an IC50 (VIM-1) of 1.01 nM. For the same compound, the “Escherichia coli MITC95” value [1] was 0.125 µM, the “Klebsiella pneumoniae MITC95” value [2] was 1.281 µM and the “Serratia marcescens MITC95” value [3] was 0.4453 µM. For the same compound, the “P. aeruginosa expressing IMP-1, efflux+ (MB9798) MITC95” value [4] was 1.781 µM, the Efflux ratio [4] was 2.78 and the “P. aeruginosa expressing IMP-1, efflux− (MB9799) MITC95” value [5] was 0.6406 µM.
`NS(=O)(=O)c1c(S(=O)(=O)C2CNC2)ccc(-c2cncnc2)c1-c1nnn[nH]1.O=C(O)C(F)(F)F` [Example 110, 3-((4-(pyrimidin-5-yl)-2-sulfamoyl-3-(1H-tetrazol-5-yl)phenyl)sulfonyl)azetidin-1-ium 2,2,2-trifluoroacetate] showed an IC50 (IMP-1) of 13.2 nM, an IC50 (NDM-1) of 4.79 nM and an IC50 (VIM-1) of 3.47 nM. The “Escherichia coli expressing NDM-1 (CLB30016) MITC95” value [1] was 1.563 µM, the “Klebsiella pneumoniae expressing VIM-1 (IHMA599644) MITC95” value [2] was 3.125 µM and the “Serratia marcescens expressing IMP-1 (CL5741) MITC95” value [3] was 1.563 µM. For the same compound, the “P. aeruginosa expressing IMP-1, efflux+ (MB9798) MITC95” value [4] was 25 µM, the Efflux ratio [4] was 15.99 and the “P. aeruginosa expressing IMP-1, efflux− (MB9799) MITC95” value [5] was 1.563 µM.
In the case of `Nc1nc2cccc(-c3ccc([S+]([O-])C4CCNCC4)c(S(N)(=O)=O)c3-c3nn[nH]n3)c2[nH]1` (stereo not drawn) [Example 14, 3-(2-amino-3H-benzo[d]imidazol-4-yl)-6-(piperidin-4-ylsulfinyl)-2-(2H-tetrazol-5-yl)benzenesulfonamide], the IC50 (IMP-1) is reported as 23.9 nM, the IC50 (NDM-1) is reported as 0.292 nM and the IC50 (VIM-1) is reported as 0.868 nM. The “Escherichia coli expressing NDM-1 (CLB30016) MITC95” value [1] was 6.25 µM, the “Klebsiella pneumoniae expressing VIM-1 (IHMA599644) MITC95” value [2] was 3.125 µM and the “Serratia marcescens expressing IMP-1 (CL5741) MITC95” value [3] was 3.125 µM. For the same compound, the “P. aeruginosa expressing IMP-1, efflux+ (MB9798) MITC95” value [4] was 6.25 µM, the Efflux ratio [4] was 4.00 and the “P. aeruginosa expressing IMP-1, efflux− (MB9799) MITC95” value [5] was 1.563 µM.
Work on `CC(N)CS(=O)(=O)c1ccc(-c2cccc3sc(N)nc23)c(-c2nn[nH]n2)c1S(N)(=O)=O` (stereo not drawn) [Example 269, 3-(2-aminobenzo[d]thiazol-4-yl)-6-(2-aminopropylsulfonyl)-2-(2H-tetrazol-5-yl)benzenesulfonamide] yielded an IC50 (IMP-1) of 0.152 nM, an IC50 (NDM-1) of 0.116 nM and an IC50 (VIM-1) of 0.176 nM. The “Escherichia coli MITC95” value [1] was 1.563 µM, the “Klebsiella pneumoniae MITC95” value [2] was 3.125 µM and the “Serratia marcescens MITC95” value [3] was 1.563 µM. For the same compound, the “P. aeruginosa expressing IMP-1, efflux+ (MB9798) MITC95” value [4] was 0.7813 µM, the Efflux ratio [4] was 1.00 and the “P. aeruginosa expressing IMP-1, efflux− (MB9799) MITC95” value [5] was 0.7813 µM.
In the case of `NCCS(=O)(=O)c1ccc(-c2cnc(N)c(F)c2)c(-c2nnn[nH]2)c1S(N)(=O)=O.O=C(O)C(F)(F)F` [Example 168, 2-((4-(6-amino-5-fluoropyridin-3-yl)-2-sulfamoyl-3-(1H-tetrazol-5-yl)phenyl)sulfonyl)ethanaminium 2,2,2-trifluoroacetate], the IC50 (IMP-1) is reported as 2.02 nM, the IC50 (NDM-1) is reported as 2.5 nM and the IC50 (VIM-1) is reported as 0.515 nM. The “Escherichia coli expressing NDM-1 (CLB30016) MITC95” value [1] was 1.563 µM, the “Klebsiella pneumoniae expressing VIM-1 (IHMA599644) MITC95” value [2] was 6.25 µM and the “Serratia marcescens expressing IMP-1 (CL5741) MITC95” value [3] was 3.125 µM. For the same compound, the “P. aeruginosa expressing IMP-1, efflux+ (MB9798) MITC95” value [4] was 6.25 µM, the Efflux ratio [4] was 4.00 and the “P. aeruginosa expressing IMP-1, efflux− (MB9799) MITC95” value [5] was 1.563 µM.
